Measurements taken from US20250025490A1, “INDUCTION OF TRAINED IMMUNITY FOR THE TREATMENT OF HYPERPROLIFERATIVE DISORDERS” (priority 2021, published 2025).

Columns and labels:
peritoneal macrophages = test: In vitro training and re-stimulation of peritoneal macrophages (Example 2), TNF-α ELISA; type: cell-based, mice; conditions: Mdivi-1 10 μM
Method: Isolation and culture of peritoneal macrophages. Mice were euthanized with CO2 inhalation and injected i.p. with 5 ml of sterile cold, complete DMEM medium (Sigma Aldrich) followed by gentle massage of the peritoneum. The peritoneal fluid was then collected, centrifuged at 1600 rpm for 5 min. The cell pellet was washed, counted, and plated at appropriate numbers in complete DMEM. The cells were incubated for 2-4 hours at 37° C. and 5% CO2 to allow peritoneal macrophages attached to the plates. The floating cells were aspirated and plates were gently washed with sterile pre-warmed medium and then added with fresh complete DMEM. For comparison studies between different mouse strains, peritoneal cells were stained with viability dye and anti-F4/80 antibodies (Biolegend) and F4/80^+ macrophages were sorted by FACS Aria III (BD Bioscience).
In vitro training and re-stimulation of peritoneal macrophages. Peritoneal macrophages were treated with 25 μg/ml of WGP or polystyrene beads (3 μm, Sigma-Aldrich) and incubated for 24 h at 37°° C. with 5% CO2. Macrophages were then washed with pre-warmed complete DMEM at least twice to remove excess WGP or polystyrene beads, added with fresh complete DMEM and incubated 6 days. On day 7, macrophages were re-stimulated with different stimuli such as LPS (10 ng/ml) (Sigma), tumor cells, tumor cell culture supernatants (40%) or rMIF (100 ng/ml) (kindly provided by Dr. Robert Mitchell) for 24 h. The culture supernatants were harvested and assayed for TNF-α by ELISA. For cell culture supernatants, tumor cell lines including LLC, B16F10, and EL4, and control cell line MLE-12 were used.
These cell lines were cultured (1 million/4 ml complete DMEM) in a 6-well plate and incubated for 72 h. The supernatants were harvested and stored at −80° C. in aliquots.
ELISA for TNF-α and MIF. TNF-α in the culture supernatants was measured using TNF-α ELISA kit (Biolegend) and MIF levels in the culture supernatants were quantified using mouse MIF ELISAkit (R&D Systems) per the manufacturer's instruction.
In vitro training with S1P. Peritoneal macrophages were stimulated with 200 nM or 300 nM of S1P for 24 h at 37° C. and 5% CO2. The macrophages were then washed and allowed for resting. On day 7, the macrophages were stimulated with LPS (10 ng/ml) or LLC culture supernatant (40%) for 24 h and the supernatants were collected for the quantification of TNF-α using ELISA. For another set of in vitro-training experiment, macrophages were trained with S1P in the presence of Mdivi-1 (10 μM) during S1P training and throughout the resting period. Cells were restimulated with LPS and the supernatants were collected to determine TNF-α levels by ELISA.
[…] The inhibitors were further added to the macrophage cultures and incubated at 37° C. and 5% CO2 for 6 more days. On day 7, the macrophages were washed once with pre-warmed complete DMEM and added LPS (10 ng/ml) or LLC culture supernatant (40%) for re-stimulation.

LLC-GFP tumor cells = test: BMDM training and adoptive transfer, LLC-GFP challenge; type: in vivo, mice; conditions: BMDM trained in presence of Mdivi-1
Text: BMDMs were trained in the presence of Mdivi-1 or DMSO. BMDMs (1×10^6) were then adoptively transferred intravenously to WT mice twice 2 days apart. Two days later recipient mice were challenged with LLC-GFP tumor cells. Mice were euthanized at day 21 post tumor challenge to analyze the tumor burden and T cell phenotype in the lungs.
To examine whether ex vivo beta-glucan trained macrophages could be used for adoptive cell therapy, bone marrow-derived macrophages (BMDM) were used for a proof-of-concept study. To this end, BMDM were trained with WGP beta-glucan for 7 days and then adoptively transferred into naïve mice. Recipient mice were then challenged with LLC-GFP tagged lung cancer cells. Mice were euthanized at day 21 (FIG. 15A).

LLC-GFP cells = test: In vivo Mdivi-1 treatment during WGP training, phenotyping and LLC-GFP challenge; parameters: species or system C57Bl/6 mice
Method: In vivo Mdivi-1 treatment. 6 weeks old C57B1/6 female mice were i.p. injected with Mdivi-1 (50 mg/kg) or DMSO along with suitable carriers (5% Tween-80 and 40% PEG300) starting day 0 for 6 days. Mdivi-1/DMSO treated mice were also treated with PBS or WGP at day 0. Mice were euthanized at day 7 to harvest the BM and lungs for phenotyping using flow cytometry. In tumor challenging experiment, Mdivi-1/DMSO-treated PBS vs WGP trained mice were i.v. injected with 0.4×10^6 LLC-GFP cells on day 9. Mice were euthanized on day 27. Lungs were then analyzed for tumor burden using flow cytometry.
CyTOF mass cytometry staining, data acquisition, and analysis. Lung single cell suspensions were prepared as described earlier and ex vivo stimulated with PMA/Ionomycin for 4 h at 37° C., 5% CO2. The cells were then harvested, washed with PBS and transferred to sterile-capped culture tubes. Cells were then stained for viability using 5 μM cisplatin (Fluidigm) in serum-free RPMI 1640 for 5 min at RT and washed with complete RPMI 1640. Cells were stained with the surface markers antibodies for 30 min at RT and washed twice with Maxpar cell staining buffer (Fluidigm) followed by fixation with 1 ml of 1X Maxpar Fix I buffer for 30 min at RT. Upon fixation, cells were washed twice with 2 ml of 1X Maxpar Perm-S buffer for 5 min at 800 g, stained for the cytoplasmic/secreted antibodies and incubated for 30 min at RT. Following incubation, cells were washed twice with 1 ml of 1X Maxpar Perm-S buffer for 5 min at 800 g. The cells were then suspended in 1 ml of 1X Maxpar nuclear antigen staining buffer (Fluidigm) and incubated for 30 min at RT, washed twice with Maxpar nuclear antigen staining permeability buffer (Fluidigm) at 800 g for 5 min each. Cells were stained for nuclear antigens and incubated at RT for 30 min, washed twice with Maxpar nuclear antigen staining permeability buffer and fixed with 1.6% formaldehyde for 10 min at RT. The fixed cells were then centrifuged to remove the formaldehyde at 800 g for 5 min and incubated with 125 nM of intercalator iridium (Fluidigm) overnight at 4° C. After overnight incubation, the cells were washed twice with cell staining buffer, pelleted and kept on ice until acquisition using CyTOF. Prior to acquisition, cells were suspended in a 1:9 solution of Cell acquisition solution: EQ 4 element calibration beads (Fluidigm) and acquired using a Helios CyTOF system. Upon acquisition of the samples, the .FCS files were normalized to .fcs files using the CyTOF software for analysis. The data acquired by CyTOF were then analyzed using FlowJo10 and the FlowSOM softwares.

COc1cc(-n2c(=S)[nH]c3ccccc3c2=O)c(Cl)cc1Cl [Mdivi-1]
effect on S1P-induced trained immunity (TNF-α) (peritoneal macrophages; LPS): abrogated S1P-induced trained immunity | effect on WGP-mediated trained responses (TNF-α) (peritoneal macrophages; LPS or LLC supernatants): abrogated WGP-mediated trained responses | effect on WGP-trained BMDM-mediated effect (LLC-GFP tumor cells): completely abrogated WGP-trained BDMD-mediated effect | effect on WGP-mediated accumulation of myeloid cells in the lungs (LLC-GFP cells; Mdivi-1 50 mg/kg i.p. daily): did not affect WGP-mediated accumulation of myeloid cells in the lungs | effect on WGP-mediated myelopoiesis in the BM (LLC-GFP cells; Mdivi-1 50 mg/kg i.p. daily, day 7): does not inhibit WGP-mediated myelopoiesis in the BM | lung IM trained phenotype (TNF-α) in WGP trained mice (LLC-GFP cells; Mdivi-1 treated): completely inhibited | tumor burdens in the lungs (LLC-GFP cells; WGP trained + Mdivi-1 vs untrained control): no difference in the tumor burdens between WGP trained mice treated with Mdivi-1 and untrained control mice | F4/80+CD11b+ lung MAMs and PD-L1+/CD206+ lung macrophages, CyTOF (LLC-GFP cells; mouse, in vivo): this effect was abolished when mice were treated with Mdivi-1
